According to ChEMBL document CHEMBL1147814, “Discovery of SB-705498: a potent, selective and orally bioavailable TRPV1 antagonist suitable for clinical development” (Bioorg Med Chem Lett, 2006):
Converted amounts (≈) assume the structure as drawn. Each block holds one compound with its values, some of them ahead of it. The source made the active and inactive calls. No cut-off for these calls is given here.

How the values were obtained:
Liver microsomes = assay: (§1) Intrinsic clearance in human liver microsomes; assay type: ADME, Microsome; conditions: microsomes
[1] = target: Transient receptor potential cation channel subfamily V member 1 (Rattus norvegicus) (UniProt O35433); assay: Antagonist activity against capsaicin-mediated activation of rat TRPV1 by FLIPR; assay type: functional
Transient receptor potential cation channel subfamily V member 1 (Rattus norvegicus), sequence (O35433 whole entry): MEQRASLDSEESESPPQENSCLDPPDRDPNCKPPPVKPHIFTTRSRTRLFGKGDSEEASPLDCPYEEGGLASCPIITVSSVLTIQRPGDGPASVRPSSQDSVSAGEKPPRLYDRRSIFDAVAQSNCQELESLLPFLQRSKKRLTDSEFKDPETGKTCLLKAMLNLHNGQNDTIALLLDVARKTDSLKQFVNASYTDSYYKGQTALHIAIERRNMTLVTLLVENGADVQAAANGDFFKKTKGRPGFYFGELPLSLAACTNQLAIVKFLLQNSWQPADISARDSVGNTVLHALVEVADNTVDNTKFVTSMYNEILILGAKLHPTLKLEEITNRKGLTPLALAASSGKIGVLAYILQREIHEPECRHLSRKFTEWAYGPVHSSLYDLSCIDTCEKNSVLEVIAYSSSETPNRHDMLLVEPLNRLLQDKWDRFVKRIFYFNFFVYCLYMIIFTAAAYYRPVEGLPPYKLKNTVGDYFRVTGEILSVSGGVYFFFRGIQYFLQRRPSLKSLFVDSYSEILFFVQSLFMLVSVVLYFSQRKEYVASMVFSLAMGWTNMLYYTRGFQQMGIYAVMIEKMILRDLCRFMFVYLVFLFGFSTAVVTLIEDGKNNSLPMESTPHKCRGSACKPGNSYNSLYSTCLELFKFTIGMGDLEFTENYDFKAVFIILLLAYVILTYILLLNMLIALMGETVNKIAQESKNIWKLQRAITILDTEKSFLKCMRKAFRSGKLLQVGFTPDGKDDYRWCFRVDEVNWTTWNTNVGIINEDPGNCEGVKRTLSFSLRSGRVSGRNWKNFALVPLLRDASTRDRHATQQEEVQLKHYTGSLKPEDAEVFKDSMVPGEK

[2] = target: Transient receptor potential cation channel subfamily V member 1 (Homo sapiens) (UniProt Q8NER1); assay: Blockade of heat activated human TRPV1 at 1 uM; assay type: functional
Transient receptor potential cation channel subfamily V member 1 (Homo sapiens), sequence (Q8NER1 whole entry): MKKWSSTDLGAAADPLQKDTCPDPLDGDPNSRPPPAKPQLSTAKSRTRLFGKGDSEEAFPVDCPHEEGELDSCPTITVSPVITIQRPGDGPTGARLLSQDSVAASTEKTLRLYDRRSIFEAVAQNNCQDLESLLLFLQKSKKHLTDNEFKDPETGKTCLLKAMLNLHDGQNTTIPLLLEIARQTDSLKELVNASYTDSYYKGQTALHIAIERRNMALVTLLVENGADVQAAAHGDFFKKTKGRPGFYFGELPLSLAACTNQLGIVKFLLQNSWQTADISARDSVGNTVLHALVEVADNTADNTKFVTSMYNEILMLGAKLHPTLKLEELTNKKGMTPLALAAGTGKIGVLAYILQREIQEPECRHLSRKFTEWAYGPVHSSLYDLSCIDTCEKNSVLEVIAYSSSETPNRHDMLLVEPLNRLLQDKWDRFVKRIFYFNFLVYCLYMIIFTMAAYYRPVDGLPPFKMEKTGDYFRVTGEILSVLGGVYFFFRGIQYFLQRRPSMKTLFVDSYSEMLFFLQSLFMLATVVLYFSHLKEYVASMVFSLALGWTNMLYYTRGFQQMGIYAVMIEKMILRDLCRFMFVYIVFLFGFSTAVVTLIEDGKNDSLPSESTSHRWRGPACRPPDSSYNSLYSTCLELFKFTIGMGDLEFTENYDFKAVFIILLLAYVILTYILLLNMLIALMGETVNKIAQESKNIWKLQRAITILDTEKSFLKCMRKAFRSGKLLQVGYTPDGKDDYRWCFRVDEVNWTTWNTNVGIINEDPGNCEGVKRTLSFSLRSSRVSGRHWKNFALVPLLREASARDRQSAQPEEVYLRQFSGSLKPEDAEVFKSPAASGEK

[3] = target: Transient receptor potential cation channel subfamily V member 1 (Homo sapiens) (UniProt Q8NER1); assay: Blockade of pH activated human TRPV1 at 1 uM; assay type: functional
[4] = target: Transient receptor potential cation channel subfamily V member 1 (Homo sapiens) (UniProt Q8NER1); assay: Inhibition of heat-mediated activation of human TRPV1 in HEK293 cells at 1 uM by patch clamp method
[5] = Aqueous solubility of the compound; assay type: physicochemical
[6] = as §1; assay type: ADME, Microsome; conditions: liver microsomes
[7] = Bioavailability in dog at 3 mg/kg, po; assay type: ADME, organism-based, Canis lupus familiaris; conditions: in vivo
[8] = target: Transient receptor potential cation channel subfamily V member 1 (Rattus norvegicus) (UniProt O35433); assay: Activity against capsaicin-induced secondary hyperalgesia assessed as reversal of allodynia in rat at 10 mg/kg, po after 2 hrs; assay type: functional, organism-based; set-up: dose 10 mg/kg
[9] = Clearance in rat; assay type: ADME, organism-based; conditions: in vivo
[10] = Clearance in dog; assay type: ADME, organism-based, Canis lupus familiaris; conditions: in vivo
[11] = Bioavailability in rat at 3 mg/kg, po; assay type: ADME, organism-based; conditions: in vivo
[12] = Volume of distribution in dog; assay type: ADME, organism-based, Canis lupus familiaris; conditions: in vivo, read-out: Vdss
[13] = Volume of distribution in rat; assay type: ADME, organism-based; conditions: in vivo, read-out: Vdss
[14] = target: Transient receptor potential cation channel subfamily V member 1 (Homo sapiens) (UniProt Q8NER1); assay: Inhibition of capsaicin-mediated activation of human TRPV1 in HEK293 cells at 1 uM by patch clamp method; assay type: functional, cell-based
[15] = target: Transient receptor potential cation channel subfamily V member 1 (Cavia porcellus) (UniProt Q6R5A3); assay: Activity against adjuvant-induced arthritis assessed as reversal of allodynia in guinea pig at 10 mg/kg, po; assay type: functional, organism-based; set-up: dose 10 mg/kg
Transient receptor potential cation channel subfamily V member 1 (Cavia porcellus), sequence (Q6R5A3 whole entry): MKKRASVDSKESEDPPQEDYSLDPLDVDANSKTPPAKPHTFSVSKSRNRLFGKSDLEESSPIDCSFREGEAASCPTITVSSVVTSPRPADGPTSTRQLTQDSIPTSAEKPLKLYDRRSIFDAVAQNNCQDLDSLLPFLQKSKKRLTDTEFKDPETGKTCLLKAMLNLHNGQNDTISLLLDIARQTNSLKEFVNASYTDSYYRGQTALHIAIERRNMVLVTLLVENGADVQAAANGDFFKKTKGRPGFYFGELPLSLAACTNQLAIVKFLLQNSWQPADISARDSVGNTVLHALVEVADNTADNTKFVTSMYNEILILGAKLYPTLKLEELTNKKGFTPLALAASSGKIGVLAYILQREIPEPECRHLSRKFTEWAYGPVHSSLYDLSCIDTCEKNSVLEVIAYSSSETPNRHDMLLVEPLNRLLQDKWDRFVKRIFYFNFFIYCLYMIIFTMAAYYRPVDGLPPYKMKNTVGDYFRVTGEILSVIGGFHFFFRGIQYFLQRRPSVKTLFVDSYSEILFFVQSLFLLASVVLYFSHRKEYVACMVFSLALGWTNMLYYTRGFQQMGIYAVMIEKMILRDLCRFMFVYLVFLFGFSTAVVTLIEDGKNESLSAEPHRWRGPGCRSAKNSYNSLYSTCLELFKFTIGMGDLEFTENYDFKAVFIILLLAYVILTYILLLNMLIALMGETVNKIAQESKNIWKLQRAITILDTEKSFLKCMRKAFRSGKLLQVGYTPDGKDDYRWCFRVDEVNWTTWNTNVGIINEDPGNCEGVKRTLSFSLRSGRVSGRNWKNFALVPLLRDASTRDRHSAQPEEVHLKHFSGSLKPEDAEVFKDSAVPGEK

[16] = Half life in guinea pig; assay type: ADME, organism-based, Cavia porcellus; conditions: in vivo
Cavia porcellus = species on record: Cavia porcellus; assay: Intrinsic clearance in guinea pig liver microsomes; assay type: ADME, Microsome
[17] = Volume of distribution in guinea pig; assay type: ADME, organism-based, Cavia porcellus; conditions: in vivo, read-out: Vdss
[18] = target: Transient receptor potential cation channel subfamily V member 1 (Cavia porcellus) (UniProt Q6R5A3); assay: Antagonist activity against capsaicin-mediated activation of guinea pig TRPV1 by FLIPR; assay type: functional
[19] = Clearance in guinea pig; assay type: ADME, organism-based, Cavia porcellus; conditions: in vivo
[20] = Half life in dog; assay type: ADME, organism-based, Canis lupus familiaris; conditions: in vivo
[21] = Half life in rat; assay type: ADME, organism-based; conditions: in vivo
[22] = Bioavailability in guinea pig at 1 mg/kg, po; assay type: ADME, organism-based, Cavia porcellus; conditions: in vivo
[23] = Solubility in stimulated gastric fluid; assay type: physicochemical; conditions: simulated gastric fluid
Canis familiaris = species on record: Canis familiaris; assay: Intrinsic clearance in dog liver microsomes; assay type: ADME, Canis lupus familiaris, Microsome
[24] = target: Transient receptor potential cation channel subfamily V member 1 (Rattus norvegicus) (UniProt O35433); assay: Activity against capsaicin-induced secondary hyperalgesia assessed as reversal of allodynia in rat at 30 mg/kg, po after 2 hrs; assay type: functional, organism-based; set-up: dose 30 mg/kg

Structure (SMILES): O=C(Nc1ccccc1Br)N[C@@H]1CCN(c2ccc(F)c(F)c2)C1
CL (Liver microsomes): <= 4 ml/min/g
pKb [1]: 8.1
solubility [5]: < 100 µg/mL

Structure (SMILES): Cc1ccc2c(c1)CCCN2CCNC(=O)Nc1ccccc1Br
CLint scaled [6]: > 45 mL/min/kg
pKb [1]: 7.4

Structure (SMILES): CCN(CCNC(=O)Nc1ccccc1Br)c1cccc(C)c1
CLint scaled [6]: 41 mL/min/kg
pKb [1]: 7.8

Structure (SMILES): O=C(NCCN1CCc2cc(F)ccc21)Nc1ccccc1Br
CLint scaled [6]: 19 mL/min/kg
pKb [1]: 7.1

Structure (SMILES): O=C(NCCN1CCc2ccccc21)Nc1ccccc1Br
pKb [1]: 6.8

Structure (SMILES): O=C(Nc1ccccc1Br)N[C@@H]1CCN(c2ncccc2C(F)(F)F)C1
pKb [1]: 7.1

Structure (SMILES): O=C(NCCN1CCc2c(F)cccc21)Nc1ccccc1Br
pKb [1]: 7.4

Structure (SMILES): Cc1ccc2c(c1)CCN2CCNC(=O)Nc1ccccc1Br
pKb [1]: 7.3

Structure (SMILES): Cc1cccc2c1CCN2CCNC(=O)Nc1ccccc1Br
pKb [1]: 7.4

The remaining lines, values ahead:

CL (Liver microsomes): <= 4 ml/min/g
pKb [1]: 7.7
Activity [2]: Active
Activity [3]: Active
Activity [4]: Active
solubility [5]: < 100 µg/mL
Structure (SMILES): Cc1cccc(N2CC[C@@H](NC(=O)Nc3ccccc3Br)C2)c1

pKb [1]: 6.7
Structure (SMILES): N#Cc1ccc(N2CC[C@@H](NC(=O)Nc3ccccc3Br)C2)nc1

pKb [1]: 7.3
Structure (SMILES): O=C(Nc1ccccc1Br)N[C@@H]1CCN(c2ccc(Cl)cn2)C1

pKb [1]: 7.2
Structure (SMILES): O=C(Nc1ccccc1Br)N[C@@H]1CCN(c2cccc(C(F)(F)F)n2)C1

pKb [1]: < 6.6
Structure (SMILES): O=C(Nc1ccccc1Br)N[C@@H]1CCN(c2ccccn2)C1

pKb [1]: < 6.8
Structure (SMILES): Cc1cccc(N2CC[C@H](NC(=O)Nc3ccccc3Br)C2)c1

pKb [1]: 6.9
Structure (SMILES): O=C(Nc1ccccc1Br)N[C@@H]1CCN(c2cc(C(F)(F)F)ccn2)C1

bioavailability [7]: 42%
Activity [8]: Active
pKb [1]: 7.5
Activity [2]: 97%
clearance [9]: 4 mL/min/kg
clearance [10]: 11 mL/min/kg
bioavailability [11]: 86%
Activity [3]: 104%
Vd [12]: 1.9 L/kg
Vd [13]: 0.9 L/kg
inhibition [14]: 102%
Activity [15]: 80%
half-life [16]: 2.6 h
CL (Cavia porcellus): 4.2 mL/min/g
Vd [17]: 3.6 L/kg
pKb [18]: 7.3
clearance [19]: 34 mL/min/kg
half-life [20]: 3.4 h
half-life [21]: 3.1 h
bioavailability [22]: 39%
solubility [23]: 400 µg/mL (≈ 932 µM)
CL (Canis familiaris): 0.9 mL/min/g
Activity [24]: Active
Structure (SMILES): O=C(Nc1ccccc1Br)N[C@@H]1CCN(c2ccc(C(F)(F)F)cn2)C1 [SB-705498]

pKb [1]: < 6.7
Structure (SMILES): Cc1ccc(N2CC[C@@H](NC(=O)Nc3ccccc3Br)C2)nc1

CL (Liver microsomes): <= 4 ml/min/g
pKb [1]: 7.8
solubility [5]: < 100 µg/mL
Structure (SMILES): O=C(Nc1ccccc1Br)N[C@@H]1CCN(c2cccc(F)c2)C1

pKb [1]: 7.2
Structure (SMILES): O=C(Nc1ccccc1Br)N[C@@H]1CCN(c2ccc(Br)cn2)C1

CL (Liver microsomes): <= 4 ml/min/g
pKb [1]: 8.3
solubility [5]: < 100 µg/mL
Structure (SMILES): Cc1ccc(N2CC[C@@H](NC(=O)Nc3ccccc3Br)C2)cc1F
